Converted amounts (≈) assume the structure as drawn. Like-named read-outs stand apart in the source and are kept apart here.
What was measured:
[1] = tested on: M. hyopneumoniae; assay: Antimycoplasma assay, MIC in microtiter plates; conditions: Mesomycoplasma hyopneumoniae
Method: (§1) Briefly, 96-well microtiter Sensititre plates containing stabilized and freeze-dried antimicrobials were used. Three wells on each plate were set as antimicrobial free growth control. Freshly thawed mycoplasma isolates with known titers were diluted in liquid medium until the number of organisms reached 10^4 color changing units/mL. 50 μL of the diluted culture was transferred into each well of the Sensititre plates. […] The plates were sealed using an adhesive foil and incubated at 36 °C for 14 days. The growth of M. hyopneumoniae was observed daily when the color of the medium changed from red to yellow (phenol red indicator), and the initial and final MICs were recorded.

[2] = tested on: M. gallisepticum; assay: Antimycoplasma assay, MIC in microtiter plates; conditions: Mycoplasmoides gallisepticum
Method: as §1

[3] = tested on: Microsporum canis; assay: Antifungal assay, macrobroth 2-fold serial dilution MIC
[4] = tested on: Trichophyton rubrum; assay: as above
[5] = tested on: Cryptococcus neoformans; assay: as above
[6] = tested on: Candida parapsilosis; assay: as above; conditions: Lodderomyces parapsilosis
[7] = tested on: Epidermophyton floccosum; assay: as above
[8] = tested on: Candida tropicalis; assay: as above
[9] = tested on: Aspergillus fumigatus; assay: as above
[10] = tested on: Candida albicans; assay: as above
[11] = tested on: M. tuberculosis H37Ra ATCC 25177; assay: Microdilution alamar blue assay (MABA)
Method: Briefly, each of the above Mycobacterium strains was cultured at 37 °C in Middlebrook 7H9 broth supplemented with 0.2 % glycerol and 10 % Oleic Acid-Albumin-Dextrose-Catalase (Sigma, St Louis, MO, USA) until logarithmic growth was reached. About 6 × 10^6 CFU/mL inoculum of Mycobacterium strain was then added to the two fold serially diluted drug samples. The final concentration of DMSO in all assays was 2.5 % or less and this dilution also served as solvent control. The samples were assayed in triplicate. All tests were carried out in sterile flat bottom 96-well microplates. Each microplate was incubated for 5 days at 37 °C in a sealed plastic CO2-permeable bag. After 7 days of incubation, 32 μL of a mixture of freshly prepared Alamar Blue solution and 20 % sterile Tween-80 at 1:1 (v/v) were added to the growth-control well. The microplates were incubated at 37 °C for 24 h. […] A well-defined pink color was interpreted as positive bacterial growth, whereas a blue color indicated an absence of growth.

[12] = tested on: M. tuberculosis H37Rv ATCC 27294; assay: Microdilution alamar blue assay (MABA); format: cell-based, Mycobacterium tuberculosis; conditions: Mycobacterium tuberculosis, read-out: MIC
[13] = tested on: M. bovis ATCC 19210; assay: microbe, parasite or virus in culture; format: cell-based, Mycobacterium bovis; conditions: Mycobacterium tuberculosis variant bovis, ATCC19210
[14] = tested on: IBDV; assay: Antiviral assay (CPE/MTT; adsorption inhibition, infection inhibition, virucidal); format: cell-based, infectious bursal disease virus; set-up: key to IC50: “--” represent not detected owing to the low inhibition ratio; conditions: IBDV, mean±SD of four experiments
[15] = tested on: M. tuberculosis complex; assay: Combination susceptibility assay (checkerboard method), overall statements; format: cell-based; conditions: combined with rifampicin
[16] = tested on: PK-15 cells; assay: Cytotoxicity assay (MTT); conditions: for TC50: PK-15, 72 h, MTT, mean ± SD, n = 4; for MNTC: PK-15, maximum non-cytotoxic concentration (90 % cell viability)
[17] = tested on: PRRSV; assay: Antiviral assay (CPE/MTT; adsorption inhibition, infection inhibition, virucidal); format: cell-based, porcine reproductive and respiratory syndrome virus; set-up: key to IC50: “--”represent not detected owing to the low inhibition ratio; conditions: PRRSV, mean±SD of four experiments
[18] = tested on: DF-1 cells; assay: Cytotoxicity assay (MTT); conditions: for TC50: DF-1, 72 h, MTT, mean ± SD, n = 4; for MNTC: DF-1, maximum non-cytotoxic concentration (90 % cell viability)
[19] = tested on: PPV; assay: Antiviral assay (CPE/MTT; adsorption inhibition, infection inhibition, virucidal); format: cell-based, porcine parvovirus; set-up: key to IC50: “--” represent not detected owing to the low inhibition ratio; conditions: PPV, mean±SD of four experiments
[20] = tested on: Marc-145 cells; assay: Cytotoxicity assay (MTT); conditions: for TC50: Marc-145, 72 h, MTT, mean ± SD, n = 4; for MNTC: Marc-145, maximum non-cytotoxic concentration (90 % cell viability)
[21] = tested on: Mycoplasma gallisepticum; assay: Combination susceptibility assay (checkerboard method); format: cell-based; conditions: combined with tetracyclines (tetracycline and doxycycline), M. gallisepticum
[22] = tested on: mycoplasma; assay: Antimycoplasma assay, overall statements; format: cell-based; conditions: range over Mycoplasma gallisepticum and Mycoplasma hyopneumoniae strains
[23] = tested on: M. tuberculosis H37Rv ATCC 27294; set-up: method as in PMID 14561478; conditions: previous report; cited from earlier work
[24] = M. gallisepticum BG44T (10^4ccu/mL)
[25] = M. gallisepticum MG-HS (10^6ccu/mL)
[26] = M. gallisepticum PG31 (10^8 ccu/mL)
[27] = Candida tropicalis, C. tropicalis 2.2735, deep fungi
[28] = Candida tropicalis, C. tropicalis 7349, deep fungi
[29] = A. fumigatus 3.5301, deep fungi
[30] = A. fumigatus 3.5352, deep fungi

Compound | MIC [1] [µg/mL] | MIC [2, 24] [µg/mL] | MIC [2, 25] [µg/mL] | MIC [2, 26] [µg/mL] | MIC [3] [µg/mL] | MIC ([3]; CBS113480) [µg/mL] | MIC [4] [µg/mL] | MIC ([4]; ATCC4438) [µg/mL] | MIC [5] [µg/mL] | MIC [6] [µg/mL] | MIC [7] [µg/mL] | MIC ([7]; CBS566094) [µg/mL] | MIC [8, 27] [µg/mL] | MIC [9, 29] [µg/mL] | MIC [9, 30] [µg/mL] | MIC ([10]; C. albicans 2.4122, deep fungi) [µg/mL] | MIC ([10]; C. albicans 90028, deep fungi) [µg/mL] | MIC [11] [µg/mL] | MIC [12] [µg/mL] | MIC [13] [µg/mL] | further results
CC[C@H]1OC(=O)C[C@@H](O)[C@H](C)[C@@H](O[C@@H]2O[C@H](C)[C@@H](O[C@H]3C[C@@](C)(O)[C@@H](O)[C@H](C)O3)[C@H](N(C)C)[C@H]2O)[C@@H](CC=O)C[C@@H](C)C(=O)/C=C/C(C)=C/[C@@H]1CO[C@@H]1O[C@H](C)[C@@H](O)[C@@H](OC)[C@H]1OC [Tylosin, tylosin] | 0.05 (≈ 0.0546 µM) | 0.05 (≈ 0.0546 µM) | 0.025 (≈ 0.0273 µM) | 0.025 (≈ 0.0273 µM) |  |  |  |  |  |  |  |  |  |  |  |  |  |  |  |  | 
C[C@@H]1[C@H](O)[C@@H](C)/C=C/C=C/C=C/C=C/C=C/C=C/C=C/[C@H](O[C@@H]2O[C@H](C)[C@@H](O)[C@H](N)[C@@H]2O)C[C@@H]2O[C@](O)(C[C@@H](O)C[C@@H](O)[C@H](O)CC[C@@H](O)C[C@@H](O)CC(=O)O[C@H]1C)C[C@H](O)[C@H]2C(=O)O [AMB, amphotericin B] |  |  |  |  | 1 (≈ 1.08 µM) | 0.5 (≈ 0.541 µM) | 1 (≈ 1.08 µM) | 1 (≈ 1.08 µM) | 0.5 (≈ 0.541 µM) | 1 (≈ 1.08 µM) | 0.5 (≈ 0.541 µM) | 0.5 (≈ 0.541 µM) | 2 (≈ 2.16 µM) | 0.5 (≈ 0.541 µM) | 0.5 (≈ 0.541 µM) | 2 (≈ 2.16 µM) | 1 (≈ 1.08 µM) |  |  |  | MIC [8, 28]: 2 µg/mL (≈ 2.16 µM)
CCN1CCN(c2cc3c(cc2F)c(=O)c(C(=O)O)cn3C2CC2)CC1 [Enrofloxacin, enrofloxacin] | 0.025 (≈ 0.0696 µM) | 0.013 (≈ 0.0362 µM) | 0.05 (≈ 0.139 µM) | 0.025 (≈ 0.0696 µM) |  |  |  |  |  |  |  |  |  |  |  |  |  |  |  |  | 
N#CCC(=O)N/N=C/c1c[n+]([O-])c2ccccc2[n+]1[O-] [CYA, cyadox] | 16 (≈ 59 µM) | 32 (≈ 118 µM) | 16 (≈ 59 µM) | 16 (≈ 59 µM) | 32 (≈ 118 µM) | 16 (≈ 59 µM) | 32 (≈ 118 µM) | 32 (≈ 118 µM) | 16 (≈ 59 µM) | 32 (≈ 118 µM) | 32 (≈ 118 µM) | 32 (≈ 118 µM) | 32 (≈ 118 µM) | 64 (≈ 236 µM) | 32 (≈ 118 µM) | 32 (≈ 118 µM) | 64 (≈ 236 µM) | 64 (≈ 236 µM) | 4 (≈ 14.7 µM) | 8 (≈ 29.5 µM) | IC50 ([14]; Inactivation): --; IC50 ([14]; Prevention): --; IC50 ([14]; Treatment): --; FIC [15]: 0.75; TC50 [16]: 15.31 ± 1.23 µg/mL (≈ 56.4 µM); MNTC [16]: 1.2 µg/mL; IC50 ([17]; Inactivation): --; IC50 ([17]; Prevention): --; IC50 ([17]; Treatment): --; TC50 [18]: 17.26 ± 1.27 µg/mL (≈ 63.6 µM); MNTC [18]: 1.0 µg/mL; MIC [8, 28]: 32 µg/mL (≈ 118 µM); IC50 ([19]; Inactivation): --; IC50 ([19]; Prevention): --; IC50 ([19]; Treatment): --; TC50 [20]: 16.92 ± 1.28 µg/mL (≈ 62.4 µM); MNTC [20]: 1.56 µg/mL; Combined effect [21]: additive (0.5 to 1, additive)
CO[C@H]1/C=C/O[C@@]2(C)Oc3c(C)c(O)c4c(O)c(c(/C=N/N5CCN(C)CC5)c(O)c4c3C2=O)NC(=O)/C(C)=C\C=C\[C@H](C)[C@H](O)[C@@H](C)[C@@H](O)[C@@H](C)[C@H](OC(C)=O)[C@@H]1C [Rifampicin, rifampicin] |  |  |  |  |  |  |  |  |  |  |  |  |  |  |  |  |  | 1.6 (≈ 1.94 µM) | 0.05 (≈ 0.0608 µM) | 0.025 (≈ 0.0304 µM) | 
Cc1c(C(=O)/C=C/c2ccccc2)[n+]([O-])c2ccccc2[n+]1[O-] [QCT, quinocetone] | 16 (≈ 52.2 µM) | 8 (≈ 26.1 µM) | 16 (≈ 52.2 µM) | 16 (≈ 52.2 µM) | 16 (≈ 52.2 µM) | 8 (≈ 26.1 µM) | 32 (≈ 104 µM) | 32 (≈ 104 µM) | 64 (≈ 209 µM) | 64 (≈ 209 µM) | 32 (≈ 104 µM) | 32 (≈ 104 µM) | > 64 | 64 (≈ 209 µM) | 64 (≈ 209 µM) | > 64 | > 64 | 64 (≈ 209 µM) | 4 (≈ 13.1 µM) | 4 (≈ 13.1 µM) | MIC [22]: 8 to 16 µg/mL (≈ 26.1 to 52.2 µM); IC50 ([14]; Inactivation): --; IC50 ([14]; Prevention): --; IC50 ([14]; Treatment): --; FIC [15]: 0.75; TC50 [16]: 2.38 ± 0.27 µg/mL (≈ 7.77 µM); MNTC [16]: 0.2 µg/mL; IC50 ([17]; Inactivation): --; IC50 ([17]; Prevention): --; IC50 ([17]; Treatment): --; TC50 [18]: 9.89 ± 1.08 µg/mL (≈ 32.3 µM); MNTC [18]: 0.25 µg/mL; MIC [8, 28]: > 64 µg/mL; IC50 ([19]; Inactivation): --; IC50 ([19]; Prevention): --; IC50 ([19]; Treatment): --; TC50 [20]: 8.90 ± 1.05 µg/mL (≈ 29.1 µM); MNTC [20]: 0.39 µg/mL; Combined effect [21]: additive (0.5 to 1, additive)
CC(=O)N1CCN(c2ccc(OCC3COC(Cn4ccnc4)(c4ccc(Cl)cc4Cl)O3)cc2)CC1 (centres unmarked) [KCZ, ketoconazole] |  |  |  |  | 0.5 (≈ 0.941 µM) | 0.25 (≈ 0.47 µM) | 0.5 (≈ 0.941 µM) | 0.5 (≈ 0.941 µM) | 0.25 (≈ 0.47 µM) | 0.125 (≈ 0.235 µM) | 0.25 (≈ 0.47 µM) | 0.25 (≈ 0.47 µM) |  | 0.25 (≈ 0.47 µM) | 0.5 (≈ 0.941 µM) | 0.5 (≈ 0.941 µM) | 0.25 (≈ 0.47 µM) |  |  |  | MIC ([8]; C. tropicalis 2.2735, deep fungi): 0.5 µg/mL (≈ 0.941 µM); MIC ([8]; Candida tropicalis): 0.5 µg/mL (≈ 0.941 µM)
CC(=O)c1c(C)[n+]([O-])c2ccccc2[n+]1[O-] [MEQ, mequindox] | 32 (≈ 147 µM) | 16 (≈ 73.3 µM) | 32 (≈ 147 µM) | 16 (≈ 73.3 µM) | > 64 | > 64 | > 64 | > 64 | 32 (≈ 147 µM) | 64 (≈ 293 µM) | > 64 | 64 (≈ 293 µM) | 64 (≈ 293 µM) | > 64 | > 64 | 32 (≈ 147 µM) | 64 (≈ 293 µM) | 32 (≈ 147 µM) | 4 (≈ 18.3 µM) | 8 (≈ 36.7 µM) | IC50 ([14]; Inactivation): --; IC50 ([14]; Prevention): --; IC50 ([14]; Treatment): --; FIC [15]: 0.75; TC50 [16]: 17.86 ± 1.28 µg/mL (≈ 81.8 µM); MNTC [16]: 0.5 µg/mL; IC50 ([17]; Inactivation): --; IC50 ([17]; Prevention): --; IC50 ([17]; Treatment): --; TC50 [18]: 40.01 ± 1.27 µg/mL (≈ 183 µM); MNTC [18]: 2.0 µg/mL; MIC [8, 28]: > 64 µg/mL; IC50 ([19]; Inactivation): --; IC50 ([19]; Prevention): --; IC50 ([19]; Treatment): --; TC50 [20]: 41.28 ± 1.28 µg/mL (≈ 189 µM); MNTC [20]: 1.0 µg/mL; Combined effect [21]: additive (0.5 to 1, additive); MIC [23]: 3.13 µg/mL (≈ 14.3 µM)
NNC(=O)c1ccncc1 [Isoniazid, isoniazid] |  |  |  |  |  |  |  |  |  |  |  |  |  |  |  |  |  | 16 (≈ 117 µM) | 0.025 (≈ 0.182 µM) | 0.025 (≈ 0.182 µM) | 

— PMC5011961, “In vitro antimicrobial activities of animal-used quinoxaline 1,4-di-N-oxides against mycobacteria, mycoplasma and fungi” (BMC Veterinary Research, 2016)
